{
  "source": "ChEMBL document CHEMBL1201862",
  "about": "“PubChem BioAssay data set” (2004)",
  "key": {"[1]": {"target": "T1, RNA-binding protein pos-1 (Caenorhabditis elegans, UniProt G5EF15)", "T1 sequence (G5EF15 whole entry)": "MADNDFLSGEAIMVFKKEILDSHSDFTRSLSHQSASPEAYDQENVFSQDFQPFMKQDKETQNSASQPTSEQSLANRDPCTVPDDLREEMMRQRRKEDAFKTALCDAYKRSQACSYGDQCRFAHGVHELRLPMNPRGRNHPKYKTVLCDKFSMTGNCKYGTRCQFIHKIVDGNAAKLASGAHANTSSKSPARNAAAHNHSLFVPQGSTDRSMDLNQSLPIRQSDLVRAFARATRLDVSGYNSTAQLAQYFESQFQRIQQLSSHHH", "test": "disruptors of C. elegans POS-1 RNA interaction – biochemical, fluorescence polarization, dose response (AID 1964);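 note: purified POS-1 fused to maltose binding protein made in E. coli; potency of compounds blocking POS-1 binding to fluorescent RNA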"}, "[2]": {"target": "ORF 73 (Human herpesvirus 8, UniProt O40947)", "test": "KSHV LANA DNA-binding disruption – biochemical, fluorescence polarization, cherry-picked samples, dose response (AID 504725);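 note: fluorescence polarization of a labeled DNA duplex reporting LANA DNA binding; potency is for inhibitors that block LANA binding to the DNA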", "set-up": "species or system Human gammaherpesvirus 8"}, "[3]": {"target": "T2, Aminopeptidase N (Plasmodium falciparum FcB1/Columbia, UniProt O96935)", "T2 sequence (O96935 whole entry)": "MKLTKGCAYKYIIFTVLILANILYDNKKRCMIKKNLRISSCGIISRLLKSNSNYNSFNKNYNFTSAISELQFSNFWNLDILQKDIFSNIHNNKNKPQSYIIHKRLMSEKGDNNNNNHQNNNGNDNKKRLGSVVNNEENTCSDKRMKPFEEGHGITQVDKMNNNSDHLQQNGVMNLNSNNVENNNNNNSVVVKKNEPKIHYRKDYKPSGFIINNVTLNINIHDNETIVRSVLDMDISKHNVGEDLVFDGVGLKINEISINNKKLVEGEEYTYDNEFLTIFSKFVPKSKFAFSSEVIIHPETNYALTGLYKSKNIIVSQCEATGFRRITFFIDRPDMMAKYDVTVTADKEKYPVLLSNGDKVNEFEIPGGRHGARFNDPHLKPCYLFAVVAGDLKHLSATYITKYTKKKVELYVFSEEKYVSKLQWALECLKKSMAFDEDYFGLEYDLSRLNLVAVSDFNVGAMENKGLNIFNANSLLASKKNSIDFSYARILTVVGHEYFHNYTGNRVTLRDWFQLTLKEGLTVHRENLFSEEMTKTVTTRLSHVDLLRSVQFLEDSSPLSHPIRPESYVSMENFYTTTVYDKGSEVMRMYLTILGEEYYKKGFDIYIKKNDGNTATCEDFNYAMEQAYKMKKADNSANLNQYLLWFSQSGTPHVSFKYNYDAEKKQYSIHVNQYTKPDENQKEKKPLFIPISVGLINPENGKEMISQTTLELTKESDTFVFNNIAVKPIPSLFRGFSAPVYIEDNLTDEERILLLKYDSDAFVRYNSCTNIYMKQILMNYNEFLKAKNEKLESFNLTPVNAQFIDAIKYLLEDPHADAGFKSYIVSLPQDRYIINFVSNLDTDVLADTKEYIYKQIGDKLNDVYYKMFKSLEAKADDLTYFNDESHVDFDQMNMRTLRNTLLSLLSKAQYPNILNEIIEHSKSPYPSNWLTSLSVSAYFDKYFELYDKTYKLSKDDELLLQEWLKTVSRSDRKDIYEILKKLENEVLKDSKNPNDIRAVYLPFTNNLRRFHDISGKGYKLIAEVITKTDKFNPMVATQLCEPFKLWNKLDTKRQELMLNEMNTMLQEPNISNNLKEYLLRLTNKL", "test": "malaria alanyl aminopeptidase activity blockers – biochemical, fluorogenic H-Leu-NHMec substrate, 1536-well (AID 1445)", "set-up": "species or system Plasmodium falciparum 3D7, 3D7"}, "[4]": {"target": "T3, Zinc finger protein mex-5 (Caenorhabditis elegans, UniProt Q9XUB2)", "T3 sequence (Q9XUB2 whole entry)": "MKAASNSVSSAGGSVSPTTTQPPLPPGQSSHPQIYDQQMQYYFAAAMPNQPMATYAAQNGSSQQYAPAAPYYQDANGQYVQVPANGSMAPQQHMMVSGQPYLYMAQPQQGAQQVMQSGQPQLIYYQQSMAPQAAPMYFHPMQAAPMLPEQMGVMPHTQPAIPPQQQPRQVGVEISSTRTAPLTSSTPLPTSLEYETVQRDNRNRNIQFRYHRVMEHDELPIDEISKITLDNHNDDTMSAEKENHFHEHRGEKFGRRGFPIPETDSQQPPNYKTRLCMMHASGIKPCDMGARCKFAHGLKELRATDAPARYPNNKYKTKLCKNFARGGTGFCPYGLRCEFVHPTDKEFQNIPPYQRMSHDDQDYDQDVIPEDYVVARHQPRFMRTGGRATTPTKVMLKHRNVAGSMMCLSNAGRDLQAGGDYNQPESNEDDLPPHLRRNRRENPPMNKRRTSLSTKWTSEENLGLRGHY", "test": "potency of MEX-5 RNA-binding blockers – biochemical, C. elegans, fluorescence polarization, dose response (AID 1960)"}, "[5]": {"test_system": "Salmon testes DNA", "test": "acridine orange-DNA binding displacement – biochemical, fluorescence polarization, cherry-picked samples, set 2, artefact control for KSHV LANA DNA-binding inhibitor project, dose response (AID 504727)", "set-up": "species or system Salmonidae"}, "[6]": {"test": "cells", "assay_type": "functional"}, "[7]": {"test_system": "HeLa", "test": "viability loss in HeLa cells – cell-based, 24 h, cherry-picked samples, cytotoxicity control, dose response (AID 504726);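 note: potency for cytotoxicity as loss of luminescence signal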", "assay_type": "functional", "conditions": "Homo sapiens"}, "[8]": {"target": "T4, Alkaline phosphatase, tissue-nonspecific isozyme (Homo sapiens, UniProt P05186)", "T4 sequence (P05186 whole entry)": "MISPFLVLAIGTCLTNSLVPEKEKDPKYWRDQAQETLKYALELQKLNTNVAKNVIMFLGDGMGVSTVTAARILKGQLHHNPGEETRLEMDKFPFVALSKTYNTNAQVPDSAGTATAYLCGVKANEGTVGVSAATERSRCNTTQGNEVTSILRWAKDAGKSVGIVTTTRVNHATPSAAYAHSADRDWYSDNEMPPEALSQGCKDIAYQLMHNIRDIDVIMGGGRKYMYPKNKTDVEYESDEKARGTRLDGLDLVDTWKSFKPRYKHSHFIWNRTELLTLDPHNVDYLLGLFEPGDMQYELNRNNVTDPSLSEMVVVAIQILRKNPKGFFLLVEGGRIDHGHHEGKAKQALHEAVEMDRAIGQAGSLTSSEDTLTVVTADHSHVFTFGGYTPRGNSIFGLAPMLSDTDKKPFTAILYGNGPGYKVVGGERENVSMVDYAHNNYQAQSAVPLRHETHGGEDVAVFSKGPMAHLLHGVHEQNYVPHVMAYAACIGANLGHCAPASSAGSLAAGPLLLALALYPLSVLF"}, "[9]": {"target": "T5, Voltage-gated N-type calcium channel alpha-1B subunit/Amyloid beta A4 precursor protein-binding family A member 1 (Homo sapiens, UniProt Q00975+Q02410)", "T5 sequence (Q00975 whole entry)": "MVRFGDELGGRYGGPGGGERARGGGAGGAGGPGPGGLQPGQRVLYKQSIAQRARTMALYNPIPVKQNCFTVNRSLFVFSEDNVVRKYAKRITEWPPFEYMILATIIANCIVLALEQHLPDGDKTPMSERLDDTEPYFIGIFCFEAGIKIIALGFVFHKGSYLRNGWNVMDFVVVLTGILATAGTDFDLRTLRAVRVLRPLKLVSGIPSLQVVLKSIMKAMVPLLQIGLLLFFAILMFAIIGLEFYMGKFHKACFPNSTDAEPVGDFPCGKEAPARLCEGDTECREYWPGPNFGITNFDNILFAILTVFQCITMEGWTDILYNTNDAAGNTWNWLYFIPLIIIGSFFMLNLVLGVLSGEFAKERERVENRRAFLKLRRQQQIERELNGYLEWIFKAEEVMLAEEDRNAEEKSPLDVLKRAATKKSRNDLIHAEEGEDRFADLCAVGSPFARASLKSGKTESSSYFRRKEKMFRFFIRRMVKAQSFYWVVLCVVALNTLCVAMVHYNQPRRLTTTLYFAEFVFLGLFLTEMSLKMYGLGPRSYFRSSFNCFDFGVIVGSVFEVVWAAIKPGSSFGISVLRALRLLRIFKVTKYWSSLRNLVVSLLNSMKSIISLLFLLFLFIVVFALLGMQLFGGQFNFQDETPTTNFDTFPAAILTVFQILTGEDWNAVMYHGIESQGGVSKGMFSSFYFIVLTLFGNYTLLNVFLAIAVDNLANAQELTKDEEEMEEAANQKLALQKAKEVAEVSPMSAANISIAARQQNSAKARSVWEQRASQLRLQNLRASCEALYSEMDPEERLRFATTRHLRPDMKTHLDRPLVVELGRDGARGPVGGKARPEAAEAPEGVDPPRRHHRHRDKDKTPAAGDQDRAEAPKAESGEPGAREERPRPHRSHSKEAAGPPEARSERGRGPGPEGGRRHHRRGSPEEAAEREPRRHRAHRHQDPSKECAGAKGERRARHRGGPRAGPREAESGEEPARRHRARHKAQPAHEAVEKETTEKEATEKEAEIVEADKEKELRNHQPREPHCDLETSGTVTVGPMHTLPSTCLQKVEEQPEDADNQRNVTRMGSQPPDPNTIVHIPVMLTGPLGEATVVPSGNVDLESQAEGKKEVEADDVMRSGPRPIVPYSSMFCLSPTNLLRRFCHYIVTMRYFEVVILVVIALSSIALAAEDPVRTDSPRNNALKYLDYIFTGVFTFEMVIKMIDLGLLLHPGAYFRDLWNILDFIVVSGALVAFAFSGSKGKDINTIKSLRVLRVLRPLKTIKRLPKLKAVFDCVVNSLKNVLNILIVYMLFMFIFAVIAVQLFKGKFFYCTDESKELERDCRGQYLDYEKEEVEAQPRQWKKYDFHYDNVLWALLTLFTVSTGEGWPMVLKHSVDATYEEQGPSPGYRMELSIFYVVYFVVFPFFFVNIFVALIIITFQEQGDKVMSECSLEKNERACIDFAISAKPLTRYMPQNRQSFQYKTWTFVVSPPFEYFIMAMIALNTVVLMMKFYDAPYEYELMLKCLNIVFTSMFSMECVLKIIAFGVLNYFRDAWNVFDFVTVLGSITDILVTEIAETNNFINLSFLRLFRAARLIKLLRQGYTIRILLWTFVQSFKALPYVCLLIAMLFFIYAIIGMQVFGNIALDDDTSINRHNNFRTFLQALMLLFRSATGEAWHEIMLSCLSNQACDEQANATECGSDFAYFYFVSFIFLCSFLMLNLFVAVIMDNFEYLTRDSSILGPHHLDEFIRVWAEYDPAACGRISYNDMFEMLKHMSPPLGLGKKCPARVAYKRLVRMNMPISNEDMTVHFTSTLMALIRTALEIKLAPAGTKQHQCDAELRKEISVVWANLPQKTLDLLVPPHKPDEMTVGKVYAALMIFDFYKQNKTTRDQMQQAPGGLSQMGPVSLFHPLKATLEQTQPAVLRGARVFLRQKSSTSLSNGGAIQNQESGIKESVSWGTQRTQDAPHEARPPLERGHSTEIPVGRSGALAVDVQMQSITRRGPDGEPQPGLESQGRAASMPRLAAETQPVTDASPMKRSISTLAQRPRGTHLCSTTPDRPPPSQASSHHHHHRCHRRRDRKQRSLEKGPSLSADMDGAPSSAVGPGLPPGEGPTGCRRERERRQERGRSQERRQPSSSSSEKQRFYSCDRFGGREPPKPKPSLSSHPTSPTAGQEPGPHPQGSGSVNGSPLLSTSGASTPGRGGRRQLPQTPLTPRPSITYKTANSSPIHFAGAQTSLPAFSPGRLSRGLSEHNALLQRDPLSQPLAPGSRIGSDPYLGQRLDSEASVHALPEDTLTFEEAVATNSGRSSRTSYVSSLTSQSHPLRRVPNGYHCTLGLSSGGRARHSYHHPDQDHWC", "T5 sequence (Q02410 whole entry)": "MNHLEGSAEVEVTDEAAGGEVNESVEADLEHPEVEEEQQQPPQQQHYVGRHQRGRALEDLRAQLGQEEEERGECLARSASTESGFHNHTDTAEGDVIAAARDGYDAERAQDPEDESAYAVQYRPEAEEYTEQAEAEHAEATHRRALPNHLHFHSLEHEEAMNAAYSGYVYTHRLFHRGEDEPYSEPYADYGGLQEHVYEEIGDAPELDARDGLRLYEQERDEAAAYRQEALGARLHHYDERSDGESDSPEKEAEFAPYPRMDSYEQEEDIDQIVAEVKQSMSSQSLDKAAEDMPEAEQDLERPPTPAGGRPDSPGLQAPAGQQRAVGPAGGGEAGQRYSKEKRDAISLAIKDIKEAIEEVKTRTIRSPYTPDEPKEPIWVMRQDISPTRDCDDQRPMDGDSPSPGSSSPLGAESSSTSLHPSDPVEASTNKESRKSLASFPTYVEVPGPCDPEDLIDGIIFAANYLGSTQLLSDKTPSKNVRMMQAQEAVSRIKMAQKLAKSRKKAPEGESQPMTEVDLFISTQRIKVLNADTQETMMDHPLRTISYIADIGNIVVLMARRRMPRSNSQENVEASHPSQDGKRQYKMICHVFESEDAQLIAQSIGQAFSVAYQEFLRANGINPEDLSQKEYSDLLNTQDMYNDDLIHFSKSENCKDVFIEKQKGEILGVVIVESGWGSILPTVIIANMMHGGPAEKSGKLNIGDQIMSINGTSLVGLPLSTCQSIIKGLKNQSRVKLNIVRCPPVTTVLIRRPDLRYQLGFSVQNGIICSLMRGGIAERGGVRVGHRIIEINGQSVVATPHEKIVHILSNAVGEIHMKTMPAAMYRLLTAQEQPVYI", "test": "disruptors of Mint-PDZ/N-type channel peptide interaction – biochemical, HTRF, set 2, SAR follow-up (AID 434980)", "assay_type": "functional"}, "[10]": {"target": "T5, Voltage-gated N-type calcium channel alpha-1B subunit/Amyloid beta A4 precursor protein-binding family A member 1", "test": "disruptors of Mint-PDZ/N-type channel peptide interaction – biochemical, HTRF, SAR follow-up (AID 2489)", "assay_type": "functional"}, "[11]": {"test_system": "Vero", "test": "cells", "assay_type": "functional", "conditions": "Chlorocebus sabaeus"}, "[12]": {"target": "Beta-galactosidase (Escherichia coli, UniProt Q8VNN2)", "sequence (Q8VNN2 whole entry)": "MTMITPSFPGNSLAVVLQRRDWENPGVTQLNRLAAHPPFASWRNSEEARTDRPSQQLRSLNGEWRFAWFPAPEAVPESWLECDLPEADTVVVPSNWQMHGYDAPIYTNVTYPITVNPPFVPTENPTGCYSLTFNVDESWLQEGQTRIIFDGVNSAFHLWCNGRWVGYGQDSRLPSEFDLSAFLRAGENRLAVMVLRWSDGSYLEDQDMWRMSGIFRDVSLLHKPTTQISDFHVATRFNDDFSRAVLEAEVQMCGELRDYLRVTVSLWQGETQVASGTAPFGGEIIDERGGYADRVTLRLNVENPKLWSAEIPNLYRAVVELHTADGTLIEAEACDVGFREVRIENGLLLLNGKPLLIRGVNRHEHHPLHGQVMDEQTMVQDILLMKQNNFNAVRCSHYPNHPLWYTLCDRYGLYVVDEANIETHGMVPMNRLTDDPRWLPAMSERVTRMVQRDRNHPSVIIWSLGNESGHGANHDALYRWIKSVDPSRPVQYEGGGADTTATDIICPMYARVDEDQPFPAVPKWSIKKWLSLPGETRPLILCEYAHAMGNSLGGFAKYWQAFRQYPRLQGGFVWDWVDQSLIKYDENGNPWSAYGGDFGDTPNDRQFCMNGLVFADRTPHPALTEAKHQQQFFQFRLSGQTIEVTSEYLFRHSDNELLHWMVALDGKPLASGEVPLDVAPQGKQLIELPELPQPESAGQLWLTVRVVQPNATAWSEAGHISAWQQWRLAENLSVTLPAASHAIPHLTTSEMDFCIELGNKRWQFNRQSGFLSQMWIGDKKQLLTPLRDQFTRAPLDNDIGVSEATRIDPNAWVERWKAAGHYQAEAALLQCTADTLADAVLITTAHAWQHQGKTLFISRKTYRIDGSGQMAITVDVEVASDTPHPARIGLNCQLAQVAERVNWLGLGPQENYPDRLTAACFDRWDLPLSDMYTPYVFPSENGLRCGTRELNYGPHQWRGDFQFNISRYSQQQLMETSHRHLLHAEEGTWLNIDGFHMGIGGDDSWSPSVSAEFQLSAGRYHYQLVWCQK", "test": "detection-enzyme interference by beta-gal modulators – biochemical, E. coli enzyme, set 3, artefact control for CCR6 antagonist project, dose response (AID 504712)", "assay_type": "functional"}, "[13]": {"test_system": "P388/ADR", "test": "cells", "assay_type": "functional", "conditions": "Mus musculus"}, "[14]": {"target": "C-C chemokine receptor type 6 (Homo sapiens, UniProt P51684)", "test": "antagonism of CCR6 beta-arrestin recruitment – cell-based, luminescent beta-arrestin readout, dose response (AID 504728)", "assay_type": "functional"}, "[15]": {"test_system": "P388", "test": "cells", "assay_type": "functional", "conditions": "Mus musculus"}, "[16]": {"test_system": "Vero", "test": "cells", "assay_type": "functional, cell-based", "conditions": "Chlorocebus sabaeus"}, "[17]": {"test_system": "SN12K1", "test": "cells", "assay_type": "functional", "conditions": "Homo sapiens"}, "[18]": {"target": "Kappa-type opioid receptor (Homo sapiens, UniProt P41145)", "test": "SAR analysis of small molecule agonists of the kappa opioid receptor via a luminescent beta-arrestin assay - Set 2. [Related pubchem assays (depositor defined):AID1777, AID1785, AID1786, AID1966, AID2133, AID2136, AID2284, AID449737]", "assay_type": "functional"}, "[19]": {"target": "Cyclin-dependent kinase 5/CDK5 activator 1 (Homo sapiens, UniProt Q00535)", "sequence (Q00535 whole entry)": "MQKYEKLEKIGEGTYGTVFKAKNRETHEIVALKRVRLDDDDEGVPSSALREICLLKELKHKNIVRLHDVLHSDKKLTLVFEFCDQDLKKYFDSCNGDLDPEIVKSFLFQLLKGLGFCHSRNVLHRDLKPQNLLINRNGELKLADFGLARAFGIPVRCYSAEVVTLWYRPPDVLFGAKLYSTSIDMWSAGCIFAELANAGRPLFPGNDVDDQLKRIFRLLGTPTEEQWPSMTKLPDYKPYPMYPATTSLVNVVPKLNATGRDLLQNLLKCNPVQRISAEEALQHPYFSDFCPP", "sequence (Q15078 whole entry, further chain)": "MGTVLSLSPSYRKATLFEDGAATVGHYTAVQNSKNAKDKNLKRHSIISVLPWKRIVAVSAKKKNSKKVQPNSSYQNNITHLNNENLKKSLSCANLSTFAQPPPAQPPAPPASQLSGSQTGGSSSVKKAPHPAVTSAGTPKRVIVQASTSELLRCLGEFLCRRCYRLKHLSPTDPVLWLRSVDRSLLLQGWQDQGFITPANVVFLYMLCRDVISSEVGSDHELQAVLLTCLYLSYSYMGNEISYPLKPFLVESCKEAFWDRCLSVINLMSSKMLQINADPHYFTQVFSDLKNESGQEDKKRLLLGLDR", "test": "blockade of human CDK5 activity – biochemical, cherry-picked samples, set 2, dose response (AID 504545)"}},
  "note": "Where “and” joins values, the source holds several entries; their conditions need not be identical. Identical values can stand only once. Calls of active or inactive are those of the source.",
  "data": [
    {"smiles": "CS(=O)(=O)Nc1nc2n(n1)C(c1ccccc1)C=C(c1ccc(Br)cc1)N2", "note": "(centres undefined)", "values": [
      {"measurement": "EC50", "setting": "[1]", "result": "> 300 µM (not active)"},
      {"measurement": "AC50", "setting": "[2]", "result": "8.07 µM (active)"},
      {"measurement": "IC50", "setting": "[3]", "result": "45.3 µM (active)"},
      {"measurement": "EC50", "setting": "[4]", "result": "6.39 µM (active)"}
    ]},
    {"smiles": "O=c1oc2ccccc2nc1/C=C(\\O)c1ccc(Br)cc1", "values": [
      {"measurement": "AC50", "setting": "[5]", "result": "56.9 µM (active)"},
      {"measurement": "IC50", "setting": "[6]", "result": "5 µM (active)"}
    ]},
    {"smiles": "Cn1c(N)c(C(=O)COC(=O)c2ccc(Cl)c(S(=O)(=O)N3CCCC3)c2)c(=O)n(C)c1=O", "values": [
      {"measurement": "AC50", "setting": "[7]", "result": "68.1 µM (active)"}
    ]},
    {"smiles": "CCN(CC)c1ccc(NC(=O)Cn2c(C(C)NC(=O)c3ccc(C)cc3)nc3ccccc32)cc1", "note": "(centres undefined)", "values": [
      {"measurement": "EC50", "setting": "[8]", "result": "> 100 µM (not active)"}
    ]},
    {"smiles": "CC(=O)Oc1cccc(N2C(=O)C3C(C2=O)C2(C)C=CC3(C)O2)c1", "note": "(centres undefined)", "values": [
      {"measurement": "IC50", "setting": "[9]", "result": "9.86 µM (active) and 9.63 µM (active)"},
      {"measurement": "IC50", "setting": "[10]", "result": "12 µM (active) and 18.3 µM (active)"}
    ]},
    {"smiles": "CCCC/C=C1/CCC(CN(C)C)C1=O", "note": "(centres undefined)", "values": [
      {"measurement": "CC50", "setting": "[11]", "result": "> 25 µM (active)"},
      {"measurement": "IC50", "setting": "[12]", "result": "> 66.6 µM (inactive)"},
      {"measurement": "GI50", "setting": "[13]", "result": "0.155 µM (active)"},
      {"measurement": "IC50", "setting": "[14]", "result": "27.1 µM (inactive)"},
      {"measurement": "GI50", "setting": "[15]", "result": "0.164 µM (active)"},
      {"measurement": "IC50", "setting": "[16]", "result": "21.8 µM (active)"},
      {"measurement": "GI50", "setting": "[17]", "result": "0.776 µM (active)"}
    ]},
    {"smiles": "O=C(CN(Cc1cccs1)C(=O)c1ccccn1)NC1CCCCC1", "values": [
      {"measurement": "EC50", "setting": "[18]", "result": "> 20 µM (inactive)"}
    ]},
    {"smiles": "Fc1ccccc1/C=N/Nc1[nH]cnc2ncnc1-2", "values": [
      {"measurement": "AC50", "setting": "[19]", "result": "17.4 µM (active)"}
    ]}
  ]
}
